For one data set, the system named is TK6 and NH32 cells. The data set can be described thus: Apoptosis by marking with Annexin-V on TK6 and NH32 cells. The format is cell-based, human. The note with it: 1.5 μM. On the procedure:
The toxicity of the organoruthenium complex on the TK6 and NH32 lymphoblastoid cells is measured with Annexin-V—a specific marker of precocious apoptosis. This marking is implemented on cells treated with derivative 11 at 1.5 μM after 0 hrs, 24 hrs, 48 hrs, 72 hrs and 96 hrs. […] Beyond 72 hrs, the apoptosis reaches the maximum limit of 90% and forms a plateau. In the control cells, the apoptosis rate remains less than 10% for the whole of the experiment. The increase over time of the externalisation of the anionic phospholipids is similar in the two cell lines, but the TK6 cells enter into apoptosis with a delay of a dozen hours on their p53-deficient variants. The NH32 line reaches the limit formed by the 90% plateau earlier than the TK6 cells. The p53 protein seems to slow down activation of the precocious signs of apoptosis induced by the Ru complexes.

A further data set concerns RDM4. Nature of the data set: DNA fragmentation by marking with propidium iodure on RDM4. It counts as cell-based, mouse. From the text: A second specific marking of apoptosis is the fragmentation of DNA between the nucleosomes. The fragmented DNA is located in the apoptotic bodies in the terminal phase of apoptosis. This DNA is hypodiploid and so less in quantity than that present in normal cells. It can be quantified by flux cytometry after permeabilisation of the cell membranes and marking with PI. The quantity of DNA in a normal cell is 2n in the G0/G1 phase and 4n in the G2 phase. Therefore, the sub-G0 DNA in a quantity of less than 2n has a weaker fluorescence intensity.
This phenomenon tends to diminish after 48 hrs of treatment. On the other hand, when the cells are treated with 45 μM, the formation of hypodiploid particles, visualised by the sub-G0 DNA content, is less than 10% at 24 hrs and exceeds 50% at 48 hrs such as to reach 60% at 72 hrs. […] The quantity of hypodiploid particles in the control cells remains less than 4% over this same period.

Data set [1] can be described thus: Preliminary toxicity experiment on healthy SWISS mice. The note with it: small number of healthy SWISS mice. The format is in vivo.
In data set [2] the test system is 2008/CMV and 2008/ATP7B cells. The data set can be described thus: MTT test on 2008/CMV and 2008/ATP7B cells. The conditions noted are these: 48 hrs. The format is cell-based. On the procedure:
FIG. 6: The 2008/CMV and 2008/ATP7B cells (contributed by Dr. Howell) were cultivated in plates with 96 wells in DMEM medium with 10% calf serum. At 30% confluence, the cells were treated for 48 hrs with cisplatinum or the various compounds derived from ruthenium in the concentrations indicated (1, 5, 15, 50 μM). The quantity of cells present in the wells was evaluated by an MTT (MTT, Sigma) test. The results obtained were related to the values of the control condition (100% viability). The graphs show an average of 8 points with the typical spacings over one experiment representative of 3 carried out. The thick black line indicates the IC50 for each graph.
One of these mechanisms is the overexpression of the copper export pump (ATP7B) which expels cisplatinum from the cell. It has been shown that this molecule is overexpressed in human tumours and that cell lines which overexpress this molecule are more resistant to cisplatinum and carboplatinum than control lines.
Two cell lines derived from 2008 cells (Katano, Safaei et al. 2003) were studied. One overexpresses the ATP7B pump, and the other only contains the control vector. The cytostatic activity of the cisplatinum and the CDR was tested in these two lines using the MTT test.
A general note: Tetrazolium assays rely on reduction of a dye to a coloured formazan, in cell work by metabolically active cells.

The values that follow come from patent publication US8193175B2, “Ruthenium complexes for treating cancers” (Universite de Strasbourg, priority 2004, dated 2012).

Regarding “[Ru(C6H4-2-C5H4N)(phen)(NCMe)2]PF6 [Compound 11]”, the “externalisation of the phosphatidylserines (Annexin-V)” value in the data set on TK6 and NH32 cells (48 hrs) is on record as “exceeds 50%”; in the data set with TK6 and NH32 cells (72 hrs of continuous treatment) it was 90%. Also, in the data set on RDM4 (15 μM, first two days), the “cell cycle distribution (propidium iodure)” value is “accumulation in the G0/G1 phase”. In addition, the “hypodiploid particles (sub-G0 DNA content)” value with RDM4 (45 μM, 72 hrs) came out at 60%. Also, the apparent toxicity result in data set [1] is “lack of apparent toxicity”.
In the case of `N.N.[Cl][Pt][Cl]` [Cisplatinum, reference compound], in data set [2], the “sensitivity of the line expressing ATP7B relative to the control line (MTT)” value is recorded as “significantly less sensitive”.
